Laboratory results published in patent US9315545B2, “Hepcidin mimetic peptides and uses thereof” (MERGANSER BIOTECH, INC., priority 2014, dated 2016).
≈ marks a conversion by molar mass, not a printed value. Entries after “also recorded” stand apart in the source; their conditions may differ. Where two headings read alike, the source gives them in different places.

Columns and labels:
[1] = Compound blood levels after subcutaneous administration in the rat (LC/MS); type: in vivo; details: 7.5 mg/kg
Experimental: (§1) Compounds 1-4 were tested in rats to determine compound pharmacokinetics and hepcidin mimetic activity in vivo as measured by serum iron reduction. The effectiveness of the compounds for serum iron reduction should correlate with the treatment of iron metabolism disorders. Individual compounds, in this example and the following examples were generally formulated in DSPE-PEG(2000) (SUNBRIGHT® DSPE-020CN, NOF America Corporation) (30 mg/mL) and dosed subcutaneously at a compound dose of 7.5 mg/kg.
(§2) The compound was prepared according to the following typical preparation. The dosing solution was prepared (7.5 mg compound/mL in clear solution) by weighing the compound into vial and an aliquot of ethanol is added into the vial and mixture vortexed. DSPE-020CN was added and the solution was vortexed, and, if necessary, the mixture was heated at 37° C. for 10-15 minutes to fully dissolve the DSPE-020CN. The ethanol was evaporated with nitrogen gas stream for 1-3 hours. Sterile water was then added and the mixture was vortexed or, if necessary, sonicated to give a clear solution.
After subcutaneous injection compound quantities in blood were measured over the subsequent 24 hours via LC/MS.

serum iron = assay: Serum iron reduction after subcutaneous administration in the rat (hepcidin mimetic activity); type: in vivo; details: 7.5 mg/kg
Experimental: as §1, §2
Serum iron was measured during the 24 h following subcutaneous administration in a rat of Compounds 1-4 and is summarized in FIG. 1. […] The observed effects on serum iron were unexpectedly similar in Compounds 1-3 despite the differences at Cysteine 7 and the differences in blood levels of the compounds (Table 7).

[2] = Stability in sodium acetate buffer pH 6 at two temperatures, reversed-phase HPLC; type: physicochemical; details: for % Purity of the Compound, 6 Hours 25° C. / % Purity of the Compound, 6 Hours 40° C.: sodium acetate buffer pH 6, 6 hours; for % Purity of the Compound, Initial: sodium acetate buffer pH 6, initial
Experimental: Three other compounds were also tested, Compound 2, Compound 3, and Compound 4. Compounds 2, 3, and 4 are modifications of Compound 1 at the sidechain of Cysteine 7. Compound 2 has a disulfide bond attached to Cysteine 7, Compound 3 has thioester bond attached to Cysteine 7, and Compound 4 has an ethyl group attached to the sidechain sulfur of Cysteine 7. The peptides were incubated in sodium acetate buffer pH 6 at two temperature conditions and then analyzed via reversed-phase HPLC. The chromatography performed was with an Ascentis Phenyl 2.7 micron column (4.6×150 mm). The binary gradient (1 ml/min) was 36% to 56% B in 40 minutes followed by an increase to 65% B in 5 minutes where A=0.1% trifluoroacetic acid in water and B=0.1% trifluoroacetic acid in acetonitrile.

[3] = Stability of Compound 1 pH 6 formulations at 40° C. with antioxidants (HPLC % AUC); type: physicochemical
Experimental: Initially the stability of Compound 1 was previously characterized and there was significant degradation observed by HPLC after about 24 hours at 40° C. […] The effect of various antioxidants and thiol scavengers that might be used in a medicament were studied.

[4] = In vitro stability of compounds in rat plasma (37° C.); type: in vitro ADME
Experimental: The in vitro stability of Compounds 1-4 in rat plasma at 37° C. was examined to give an indication of stability in a whole animal model (Table 6).

[5] = type: physicochemical
Experimental: Compound 5, which has the same disulphide block of the reactive cysteine as Compound 2 was also evaluated in stability studies over a 4 week period in 50 mM Na Acetate pH 5 at different temperatures.

[6] = type: physicochemical; remark: listed apart in the source
Experimental: An additional critical aspect in drug delivery is retention of solubility with time (physical stability), especially under refrigerated conditions. […] Unexpectedly, clear differences in physical stability were observed between Compound 5 and other compounds with only minor changes in sequence (e.g. Compounds 7 and 8). The combination of unexpected solubility of greater than 100 mg/mL in mildly acidic conditions and lack of significant changes in solution character after refrigeration, are unexpected and advantageous for a pharmaceutical product.

physchem = type: physicochemical
Experimental: Different solvent compositions with different properties that are commonly used as a basis for pharmaceutical compositions were added to known quantities of the indicated compound and mixed. If a clear solution was not obtained, additional solvent was added and the solution mixed. […] For example “50-100” would indicate that the compound was not soluble at 100 mg/mL but upon additional solvent to have a final concentration of 50 mg/mL, the compound was soluble.

[7] = type: physicochemical; details: HCl (0.01%), 40° C.
[8] = sodium acetate buffer pH 6, 18 h, 40° C.
[9] = sodium acetate buffer pH 6, 18 hours, 40° C.

CCCCCCCCCCCCCCCCNC(=O)CN(CC(N)=O)C(=O)CCCCCNC(=O)C(Cc1c[nH]c2ccccc12)NC(=O)C(CCCNC(=N)N)NC(=O)C(CS)NC(=O)C(CCCNC(=N)N)NC(=O)CC1CCCN1C(=O)C(NC(=O)C(Cc1c[nH]cn1)NC(=O)C(NC(=O)CNCC(=O)O)C(C)O)C(c1ccccc1)c1ccccc1 (stereo not drawn) [Compound 1, reference compound]
AUC(0-t) ([1]; sc, subcutaneous, blood, dosed compound itself, read-out: AUC(0-24) (hr*ng/mL, mean ± SD)): 2750 ng·h/mL
blood levels of the dosed compound (in words) ([1]; subcutaneous): remains little changed out to at least 24 hours
reduction in serum iron (in words) (serum iron): significant drop in serum iron level
significant degradation peaks observed by HPLC [2]: a single major peak
degradation after 18 hours at 40° C. (in words) ([2]; 18 hours, 40° C.): almost completely degraded
% Purity of the Compound, 6 Hours 25° C. ([2]; 25° C.): 58.9%
% Purity of the Compound, 6 Hours 40° C. ([2]; 40° C.): 11.9%
Change in Main Peak % Area After 18 H Incubation, 40° C. [2, 8]: −95-100%
% Purity of the Compound, 18 Hours 40° C. [2, 9]: <5%
% Purity of the Compound, Initial [2]: 96.9%
main peak (% AUC) lost ([3]; after about 24 hours at 40° C., no antioxidant): 90%
Difference (%) (T24 − T0) ([3]; pH 6 formulation, antioxidant 10 mM or none, 40° C.): −90%
Main peak % AUC, T0 ([3]; pH 6 formulation, antioxidant 10 mM or none, 40° C., T0): 94.4 % AUC
Main peak % AUC, T ~24 hours ([3]; pH 6 formulation, antioxidant 10 mM or none, 40° C., ~24 hours): ~4.0 (estimated) % AUC
In vitro plasma stability (Ratio of compound/benfluorex (std) degradation) ([4]; rat plasma, 37° C.): 0.41
half-life ([4]; rat plasma, 37° C., read-out: In vitro plasma stability (T ½)): 0.383 h

CCCCCCCCCCCCCCCCNC(=O)CN(CC(N)=O)C(=O)CCCCCNC(=O)C(Cc1c[nH]c2ccccc12)NC(=O)C(CCCNC(=N)N)NC(=O)C(CSCC)NC(=O)C(CCCNC(=N)N)NC(=O)CC1CCCN1C(=O)C(NC(=O)C(Cc1c[nH]cn1)NC(=O)C(NC(=O)CNCC(=O)O)C(C)O)C(c1ccccc1)c1ccccc1 (stereo not drawn) [Compound 4]
AUC(0-t) ([1]; in vivo, sc): 25600 ng·h/mL
blood levels of Compound 1 (metabolite) after dosing the labelled compound ([1]; in vivo, sc): No levels of Compound 1 were detected
blood levels of the dosed compound (in words) ([1]; in vivo, sc): very high blood levels
reduction in serum iron (in words) (serum iron): minimal reduction in serum iron after 24 h; also recorded: little activity in vivo
degradation after 18 hours at 40° C. (in words) [2]: no evidence of degradation involving the cysteine
% Purity of the Compound, 6 Hours 25° C. ([2]; 25° C.): 96.8%
% Purity of the Compound, 6 Hours 40° C. ([2]; 40° C.): 96.6%
Change in Main Peak % Area After 18 H Incubation, 25° C. ([2]; sodium acetate buffer pH 6, 18 h, 25° C.): −0.5%
Change in Main Peak % Area After 18 H Incubation, 40° C. [2, 8]: 0.3%
% Purity of the Compound, 18 Hours 25° C. ([2]; sodium acetate buffer pH 6, 18 hours, 25° C.): 96.2%
% Purity of the Compound, 18 Hours 40° C. [2, 9]: 97.0%
% Purity of the Compound, Initial [2]: 96.7%
In vitro plasma stability (Ratio of compound/benfluorex (std) degradation) [4]: 2.74
half-life ([4]; rat, plasma): 1.87 h

CCCCCCCCCCCCCCCCNC(=O)CN(CC(N)=O)C(=O)CCCCCNC(=O)C(Cc1c[nH]c2ccccc12)NC(=O)C(CCCNC(=N)N)NC(=O)C(CSSC)NC(=O)C(CCCNC(=N)N)NC(=O)C1CCCN(C(=O)C(NC(=O)C(Cc2c[nH]cn2)NC(=O)C(NC(=O)CNCC(=O)O)C(C)O)C(c2ccccc2)c2ccccc2)C1 (stereo not drawn) [Compound 5]
blood levels of the dosed compound (in words) ([1]; in vivo, sc): surprisingly higher blood levels relative to the other compounds
% Purity, Week 0, 2-8° C. ([5]; 50 mM NaAcetate pH 5, week 0, 2-8° C.): 96.9%
% Purity, Week 0, 25° C. ([5]; 50 mM NaAcetate pH 5, week 0, 25° C.): 96.9%
% Purity, Week 1, 2-8° C. ([5]; 50 mM NaAcetate pH 5, week 1, 2-8° C.): 96.8%
% Purity, Week 1, 25° C. ([5]; 50 mM NaAcetate pH 5, week 1, 25° C.): 96.8%
% Purity, Week 2, 2-8° C. ([5]; 50 mM NaAcetate pH 5, week 2, 2-8° C.): 96.8%
% Purity, Week 2, 25° C. ([5]; 50 mM NaAcetate pH 5, week 2, 25° C.): 96.3%
% Purity, Week 4, 2-8° C. ([5]; 50 mM NaAcetate pH 5, week 4, 2-8° C.): 96.7%
% Purity, Week 4, 25° C. ([5]; 50 mM NaAcetate pH 5, week 4, 25° C.): 96.1%
duration of serum iron reduction compared with Compound 2 (serum iron): longer effect
reduction in serum iron (in words) (serum iron): retained significant hepcidin activity; also recorded: comparable activity
physical stability under refrigerated conditions (in words) [6]: no changes in solution solubility or solution characteristics
solubility characteristics compared to the other compounds (in words) (physchem): unexpectedly superior solubility characteristics
solubility (physchem; Solubility (mg/mL) at Ambient Temperature, 30% PEG 400): 50 to 100 mg/mL (≈ 27.7 to 55.4 mM)
solubility (physchem; Solubility (mg/mL) at Ambient Temperature, 50% EtOH/water): > 100 mg/mL
solubility (physchem; Solubility (mg/mL) at Ambient Temperature, Water): > 100 mg/mL
solubility (physchem; pH 2.3, Solubility (mg/mL) at Ambient Temperature, 10% Tween 80 pH 2.3-2.8): > 200 mg/mL
solubility (physchem; pH 2.7, Solubility (mg/mL) at Ambient Temperature, 50% propylene glycol, pH 2.7): 50 to 100 mg/mL (≈ 27.7 to 55.4 mM)
change of solubility with pH (in words) (physchem; pH 4): no such significant change in solubility with pH
solubility (physchem; pH 4.5, Solubility (mg/mL) at Ambient Temperature, 10% Tween 80 pH 4.5-5.0): > 100 mg/mL
solubility (physchem; pH 5, Solubility (mg/mL) at Ambient Temperature, 2% Tween 80 pH 5): > 100 mg/mL
solubility (physchem; pH 5.5, Solubility (mg/mL) at Ambient Temperature, 10% Tween 80 pH 5.5-6.0): > 100 mg/mL
solubility (physchem; pH 6.4, Solubility (mg/mL) at Ambient Temperature, 2% Tween pH 6.4): > 44 mg/mL
solubility (physchem; solubility in mildly acidic conditions): > 100 mg/mL
% Purity, Day 0 ([7]; day 0): 97.1%
% Purity, Day 7 ([7]; day 7): 96.8%
in vitro plasma stability, comparison in words [4]: even greater than that for Compound 2
